Assay results taken from publication PMC11671585, “Deciphering the molecular basis of lipoprotein recognition and transport by LolCDE” (Signal Transduction and Targeted Therapy, 2024).

Target: T1, LolCDE (LolCD^E171QE) (Escherichia coli, UniProt P75957, E171Q)
T1 construct: gene lolD; full complex LolC, LolD dimer, LolE; 8xHis tag at C terminus of LolD; expressed in E. coli C43 (DE3); reconstituted in MSP1D1 nanodiscs with E. coli polar lipids; with Lipoprotein-releasing system transmembrane protein LolC; Lipoprotein-releasing system transmembrane protein LolE
T1 sequence (P75957 whole entry E171Q): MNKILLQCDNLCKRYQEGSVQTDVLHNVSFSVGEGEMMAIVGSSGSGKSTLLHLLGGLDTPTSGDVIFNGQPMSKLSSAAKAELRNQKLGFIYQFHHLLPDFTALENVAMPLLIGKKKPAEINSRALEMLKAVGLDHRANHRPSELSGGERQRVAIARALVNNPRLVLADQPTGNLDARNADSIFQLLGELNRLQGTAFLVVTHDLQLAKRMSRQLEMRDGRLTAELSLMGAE
T1 sequence (P75958 2-414, further chain): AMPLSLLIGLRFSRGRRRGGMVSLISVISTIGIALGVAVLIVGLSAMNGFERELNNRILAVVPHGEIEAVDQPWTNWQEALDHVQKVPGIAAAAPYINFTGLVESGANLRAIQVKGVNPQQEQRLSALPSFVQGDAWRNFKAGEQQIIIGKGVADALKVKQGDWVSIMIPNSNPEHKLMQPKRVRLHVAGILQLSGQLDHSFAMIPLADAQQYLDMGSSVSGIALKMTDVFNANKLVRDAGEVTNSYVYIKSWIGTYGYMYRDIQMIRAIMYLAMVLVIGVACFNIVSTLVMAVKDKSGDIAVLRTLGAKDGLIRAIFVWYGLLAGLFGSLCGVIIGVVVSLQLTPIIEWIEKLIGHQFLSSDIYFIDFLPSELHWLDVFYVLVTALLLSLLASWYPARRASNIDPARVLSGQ
T1 sequence (P0ADC3 whole entry, further chain): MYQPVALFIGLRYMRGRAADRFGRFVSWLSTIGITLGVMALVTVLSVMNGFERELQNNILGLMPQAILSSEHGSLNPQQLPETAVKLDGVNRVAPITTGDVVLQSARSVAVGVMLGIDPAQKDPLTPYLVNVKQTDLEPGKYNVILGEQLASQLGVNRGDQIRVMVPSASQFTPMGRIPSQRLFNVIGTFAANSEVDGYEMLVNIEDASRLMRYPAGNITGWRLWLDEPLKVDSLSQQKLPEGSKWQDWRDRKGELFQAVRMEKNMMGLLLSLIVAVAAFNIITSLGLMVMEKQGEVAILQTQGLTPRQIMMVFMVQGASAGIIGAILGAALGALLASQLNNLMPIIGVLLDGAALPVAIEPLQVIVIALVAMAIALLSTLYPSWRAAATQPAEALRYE
Experiment: cryo-EM structure, […] Å, nanodiscs
Type: binding
Settings: endogenous ATP with Mg2+, no nucleotide added; both catalytic sites of the LolD dimer; catalytically inactive mutant; pH 7.8

Structure (SMILES): Nc1ncnc2c1ncn2[C@@H]1O[C@H](COP(=O)(O)OP(=O)(O)OP(=O)(O)O)[C@@H](O)[C@H]1O [ATP]
- cryo-EM structure, 3.2 Å, nanodiscs: additional cryo-EM densities were observed in the catalytic pockets of LolD, which were identified as ATP
